Test results: patent US12338229B2, “Small molecule stimulators of steroid receptor coactivator-3 and methods of their use as cardioprotective and/or vascular regenerative agents” (BAYLOR COLLEGE OF MEDICINE, priority 2018, dated 2025)
“And” between values parts separate entries of the source, which are not always exact repeats. Equal entries are not always repeated.

What was measured:
bone marrow granulocytes = test: qPCR of bone marrow granulocytes post-MI; type: in vivo, mice; settings: bone marrow granulocytes 24 hours post-MI
Protocol: RNA isolation and qPCR. Total RNA was isolated from cells using the Qiagen RNA isolation kit. cDNA was prepared with the VILO master mix reagent. qPCR analysis was carried out using the Taqman kit with primers for Tlr7, Lcn2 and 18s.
Granulocyte isolation. Bone marrow cells were isolated from the rear legs of mice treated with control or MCB-613 for 24 hours. Rear legs were removed and placed in ice-cold Hanks balanced salt solution (HBSS) (without Ca/Mg) plus 2% FBS. Both ends of the bone were cut and the bone marrow was flushed with ice cold HBSS with 2% FBS using a 26G needle. Clumps were broken up with an 18G needle and filtered through a 70 μm filter and centrifuged at 400 g for 10 min at 4° C. The pellet was suspended in RBC lysis buffer (BD Biosciences Pharmigen; San Diego, CA) and incubated at room temperature for two minutes. HBSS buffer (8 mL) was added and spun at 400 g for 10 mins at 4° C. Viable cells were counted by trypan blue exclusion and bone marrow granulocytes were isolated using a mouse Neutrophil Isolation Kit from Miltenyi Biotec (Bergisch Gladbach, Germany).

[1] = system: mice after myocardial infarction; test: Myocardial infarction model, permanent LAD ligation (echocardiography, histology, immunostaining, PET, EM); type: in vivo, ICR (CD1) mice
Protocol: Model of heart failure in adult mice. To induce myocardial infarction (MI) in 8- to 10-week-old mice, the left anterior descending (LAD) artery was permanently ligated. Briefly, mice were anesthetized with 2% isoflurane and then intubated. The heart was exposed by performing a thoracotomy through the fourth or fifth intercostal space and an 8-0 nylon suture was tied around the LAD artery. 10 uls of Adenoviral SRC-3 (Ad-SRC-3) or adenoviral GFP (Ad-GFP) at a titre of 9×10^9 pfu/ml was injected into the anterior free wall near left ventricular descending coronary artery. To assess cell cycle entry, the analog 5-ethynyl-2′-deoxyuridine (EdU; 0.2 g/L, Santa Cruz, SC-284628A) was added to the drinking water for the 9 day duration of the experiment. Cell proliferation was measured using Click-iT EdU kit (Invitrogen, C10339). The initial dose of MCB-613 was administered intraperitoneally at 20 mg/kg 2 hours after surgery. Subsequent injections of the same dose were given for 6 additional days, and then repeated doses were given for 3 days at week 9 and week 16. Mice were harvested at indicated time points for analyses.
Echocardiography. Cardiac function was determined by echocardiography (VisualSonics, Vevo 2100, 40 Mhz-550S probe). After alignment in the transverse B-mode with the papillary muscles, cardiac function was measured on M-mode images.
(§1) Histological analysis. Whole hearts were fixed with 10% formalin, embedded in paraffin, and sectioned at 7 μm intervals. Each slide had 3 or 10 sections, which started at the apex and ended at the suture ligation site (approximately 30-50 slides). Sections at the papillary level (slides 20-30) were stained with Picrosirius red to identify areas of fibrosis. Infarct size was determined using a length-based approach.
Immunostaining analysis. Immunohistochemistry and immunofluorescent staining experiments were performed on FFPE (formalin-fixed and paraffin-embedded sections). TUNEL staining to detect apoptotic cells was done using the DeadEnd™ Fluorometric TUNEL System manufacturer's protocol (Promega, GS3250).
Model of heart failure in adult mice. To induce MI in eight- to ten-week-old mice, the left anterior descending (LAD) artery was permanently ligated. Briefly, mice were anesthetized with 2% isoflurane and then intubated. The heart was exposed by performing a thoracotomy through the fourth or fifth intercostal space and an 8-0 nylon suture was tied around the LAD. The initial dose of MCB-613 was administered intraperitoneally at 20 mg/kg, two hours after surgery. Subsequent injection at the same time of the day and same dose were given for six additional days, and then repeated doses were given for three days at week nine and week 16. Mice were harvested at the indicated time points for analyses.
Echocardiography. Cardiac function was determined by echocardiography (VisualSonics, Vevo 2100, 40 Mhz-550S probe). After alignment in the transverse B-mode with the papillary muscles, cardiac function was measured on M-mode images. Animal numbers for cardiac function in FIG. 11A are Day 0 control (17); MCB-613 (15), Day 1 control (10); MCB-613 (12), Day 14 […], Day 56 control (12); MCB-613 (15), Day 70 control (8); MCB-613 (10), Day 80 control (8); MCB-613 (11), Day 133 control (3); and MCB-613 (3).
as §1, with “three (3) to ten (10)” for “3 or 10”, “approach. TUNEL staining to detect apoptotic cells was performed using the DeadEnd™ Fluorometric TUNEL System (Promega, GS3250).” for “approach.”
Electron Microscopy. […]

[2] = system: GAL4-DBD full length SRC-1, -2 or -3 fusion; test: GAL4 luciferase reporter assay in cardiac fibroblasts; type: cell-based, mice; settings: 6 μM, SRC-3 vs SRC-1 and SRC-2
Protocol: Reporter assay. Cardiac fibroblasts were plated in six well plates and transfected with a GAL4 responsive luciferase reporter (pG5-luc) and expression vectors for a GAL4 DNA binding domain (GAL4-DBD) full length SRC-1, -2 or -3 fusion construct (pBIND-SRC-1, pBIND-SRC-2 or pBIND-SRC-3) or pBIND control using Lipofectamine 3000 (Invitrogen; Carlsbad, CA). Twenty-four (24) hours post transfection, cells were treated with 6 μM MCB-613 or dimethyl sulfoxide (DMSO) and incubated overnight. Post treatment cells were lysed and total protein was isolated using the Promega luciferase assay system (Promega Life Sciences; Madison, WI). Protein concentration was measured using a Bradford assay (Bio-Rad Laboratories; Hercules, CA). Relative light units were measured and normalized to total protein concentration.

cardiac fibroblasts = test: Tube formation assay; type: cell-based, mice; settings: adult cardiac fibroblasts, 6 μM, 24 hours
Protocol: Tube formation assay. Cardiac fibroblasts were treated with either DMSO or 6 μM MCB-613. Twenty four hours post treatment, drug was washed off by rinsing the cells twice with PBS. The cells were then conditioned with endothelial cell growth media for 24 hours. Post conditioning, cells were plated on growth factor reduced matrigel (10 mg/ml) to allow for tube formation overnight. The next day tubes were stained with Calcein AM and imaged using the Cytation imaging system.

CCC1C/C(=C\c2cccnc2)C(=O)/C(=C/c2cccnc2)C1 (centres unmarked) [MCB-613]
Tlr7 and Lcn2 mRNA expression in granulocytes (bone marrow granulocytes): Increased expression of Tlr7 and Lcn2 | 18F-FDG uptake in infarct zone (cardiac PET) ([1]; 2 weeks post-MI): Improved ^18F-FDG uptake in the infarct zone | infarct size vs saline control ([1]; 10 weeks post-MI, picrosirius red): decrease in infarct size | heart weight (vs tibia length), cardiomegaly ([1]; 12 weeks post-MI): attenuated the MI-induced cardiomegaly compensatory response | cardiomyocyte size and fibrosis in infarct border zone ([1]; 12 weeks post-MI, Picrosirius red): cardiomyocytes were smaller and associated with less fibrosis in the infarct border zone | infarct size (Picrosirius red, % length) ([1]; 12 weeks post-MI, individual hearts, control 31% and 44%): 3% and 14% and 20% and 22% | apoptosis (TUNEL) ([1]; 24 hours post-MI): prevents apoptosis | average ejection fraction ([1]; 24 hours post-MI, 20 mg/kg ip two hours post-MI, control 30%): 43% | LYZ1 granule expression in myocardium ([1]; 24 hours post-MI, vs control): LYZ1 granule expression was significantly increased | myofibrillar and mitochondrial structure (electron micrographs) ([1]; 72 hours post-MI): prevent disorganization of myofibrillar structure and abnormal mitochondrial cristal architecture | ejection fraction maintained ([1]; from 24 hours until 19 weeks post-MI, 20 mg/kg ip 2 h post-MI and six additional days): above 40% | angiogenesis in infarct border zone (CD31 immunostain) ([1]; three days post-MI, treated two hours post-MI): Increased angiogenesis was observed in the infarct border zone | SRC activation (luciferase, RLU) [2]: induced in response to MCB-613 to a greater extent than for SRC-1 and SRC-2 | tube formation (cardiac fibroblasts): stimulated tube formation
